Literature values in PMC2063170, “A phase I clinical and pharmacokinetic study of the new topoisomerase inhibitor GI147211 given as a 72-h continuous infusion” (British Journal of Cancer, 1998).

Design: method as in Burris et al. 1994
Conditions: ref Burris et al. 1994, cited from earlier work

## CC[C@@]1(O)C(=O)OCc2c1cc1n(c2=O)Cc2cc3c(CN(C)C)c(O)ccc3nc2-1 [topotecan]
Continuous infusion for 3 days every 3 weeks
  MTD: 1.6 mg m-2 day-1
plasma, 1.6 mg m-2 day-1 continuous infusion for 3 days every 3 weeks
  Css of lactone at MTD: 5.5 ng/mL
